Data from patent publication US20080268445A1, “Ant2 Conditional Knockout Mouse and Methods” (Emory University, priority 2002, published 2008).
“Also recorded” adds a separate entry of the source. *1 amine or outer side, *2 acyl side, *3 side chain or, on linkers, in order; H or OH if unused. Where a SMILES comes first, the peptide text is derived from it. Bridges are numbered along the chain shown (N, C = ends). Roman numbers before positions name the chains, in order. [ ]: non-standard residue; d: D form. Actinocin(9to1) = Cc1c2oc3c(C)ccc(C(=O)[*:1])c3nc-2c(C(=O)[*:2])c(N)c1=O; NMeV = CN[C@H](C(=O)O)C(C)C; Sar = CNCC(=O)O

What was measured:
[1] = test system: mtPTP; details: ANT-deficient and ANT-control mitochondria; 1 μM FCCP in the presence of Ca++
Description: To determine if the mtPTP could still exist in the absence of ANT, we isolated mitochondria from livers of Ant1^−/−, Ant2^fl/Y, Alb-Cre (ANT-deficient) and Ant1^−/−, Ant2^fl/Y (ANT-control) mice. […] The opening of the pore was monitored by following mitochondrial swelling through decreased light scattering.
Mitochondria (1 mg protein) were incubated in 1.5 ml of the above reaction medium with 16.5 nmol CaCl2. After two minutes 0.1 uM ruthenium red was added followed by FCCP.

[2] = test system: mtPTP; experiment: Ca++-activation of the mtPTP in liver mitochondria, irreversible release of TPP+; format: biochemical, mouse
Description: The mitochondria were energized with succinate in the presence of TPP^+. TPP^+ is accumulated into the mitochondrial matrix in proportion to ΔP, and its concentration in the suspension medium is monitored using a TPP^+ sensitive electrode. Aliquots of Ca^++ are then added to the reaction solution, with each addition causing a transient release of TPP^+ as the Ca^++ is taken into the mitochondria at the expense of ΔP. […] At this juncture, ΔP collapses and the mitochondrial TPP^+ is irreversibly released into the suspension medium. The amount of Ca^++ required to cause irreversible release of TPP^+ provides a quantitative measurement of mtPTP sensitivity.
To determine if the ANTs provide a regulatory function for the mtPTP, ANT-deficient and control liver mitochondria were loaded with TPP^+ and then Ca^++ was added in the presence or absence of various mtPTP effectors until the TPP^+ was irreversibly released. The relative levels of Ca^++ required for permeability transition were then compared.
The calcium sensitivity of the mtPTP was calculated from 10 nmol CaCl2 additions to a reaction vessel containing 1 mg of mitochondrial protein in 1.0 ml of 250 mM sucrose, 10 mM MOPS, 2 mM K2HPO4, pH 7.2, and 5 mM succinate. Irreversible release of TPP^+ from the mitochondria was indicative of mtPTP activation.

[3] = test system: liver mitochondria; experiment: ADP stimulation of respiration in liver mitochondria (oxygen consumption, succinate); format: biochemical, mouse; details: liver mitochondria from Ant1−/−, Ant2fl/Y, Alb-Cre (ANT-deficient) animals
Description: FIGS. 6A and 6B show ANT1 and ANT2 expression and respiration of control and ANT-deficient liver mitochondria. Liver mitochondria were isolated from Ant1^−/−, Ant2^fl/Y (ANT-control) or Ant1^−/−, Ant2^fl/Y, Alb-cre (ANT-deficient) mice. FIG. 6A: Western blot analysis using antibodies against ANT1 (left) and ANT2 (right). Heart mitochondria were used as a positive control for the presence of ANT1. ANT1 and ANT2, 30 kDa. FIG. 6B: Oxygen consumption was measured using succinate as substrate in ANT-control (left) and ANT-deficient (right) mitochondria. MITOS, addition of 600 μg of mitochondrial protein. ADP, 125 nmol ADP; FCCP (uncoupler), 75 nM.
Respiration and oxidative phosphorylation enzyme activities were measured polarographically and spectrophotometrically (42). The membrane potential was calculated from the mitochondrial uptake of TPP^+ using a TPP^+ sensitive electrode (44-47). The mtPTP was examined in liver 10-week-old Ant1^−/− or +/+, Ant2^fl/Y, Alb-Cre +/− animals.

[4] = test system: mouse hepatocytes; experiment: Induction of apoptosis in primary hepatocytes, apoptotic nuclei by Hoechst 33258 staining; format: cell-based; details: ANT-deficient and ANT-control hepatocytes; agent alone; 12 h
Description: Primary hepatocytes from ANT-deficient and ANT-control mice were cultured on collagen-coated cover glasses and treated with Fas ligand and Actinomycin D. After 12 h, cells were stained with Hoechst 33258 and images were acquired with a Zeiss Axio-10 fluorescence microscope. Cells with chromatin condensation and nuclei fragmentation were counted as apoptotic.
Hepatocytes were isolated from 12 to 15 month old anesthetized mice, perfused in situ with collagenase-dispase medium (Invitrogen, Carlsbad, Calif.). The hepatocytes were gently released, filtered and cultured on collagen coated cover glasses or plates in Waymouth's MB-752/1 medium containing 27 mM NaHCO3, 2 mM L-glutamine, 10% fetal calf serum, 0.5 μg/ml insulin, 0.5 μg/ml transferrin, 0.5 ng/ml sodium selenate and 100 nM dexamethasone (49). […]
Fas ligand-TNFα+Actinomycin D induced apoptosis was monitored by detection of apoptotic nuclei by staining with 10 μg/ml of Hoechst 33258 (Molecular Probes, Eugene, Oreg.) (9). Br-A23187-induced cell death after 1 h treatment was monitored by measuring the percentage of lactate dehydrogenase (LDH) released into the culture medium as a percentage of the activity in a Triton X-100 total cell lysate.

[5] = ANT-control (Ant1−/−, Ant2fl/Y) liver mitochondria
[6] = ANT-deficient (Ant1−/−, Ant2fl/Y, Alb-Cre) liver mitochondria

Compound | effect on Ca++ activation of the mtPTP (Ca++ required for permeability transition) [2, 5] | effect on Ca++ activation of the mtPTP (Ca++ required for permeability transition) [2, 6] | also measured
N#CC(C#N)=NNc1ccc(OC(F)(F)F)cc1 [FCCP, carbonyl cyanide p-(trifluoromethoxy)phenylhydrazone] |  |  | FCCP-induced mtPTP activation (mitochondrial swelling) [1]: responded equally well
Nc1ncnc2c1ncn2[C@@H]1O[C@H](COP(=O)(O)OP(=O)(O)O)[C@@H](O)[C@H]1O [ADP, adenosine diphosphate] | strongly inhibited | no effect; also recorded: without effect | stimulation of mitochondrial respiration [3]: could not be stimulated
Cc1c2oc3c(C)ccc(C(=O)N[C@@H]4C(=O)N[C@H](C(C)C)C(=O)N5CCC[C@H]5C(=O)N(C)CC(=O)N(C)[C@@H](C(C)C)C(=O)O[C@@H]4C)c3nc-2c(C(=O)N[C@@H]2C(=O)N[C@H](C(C)C)C(=O)N3CCC[C@H]3C(=O)N(C)CC(=O)N(C)[C@@H](C(C)C)C(=O)O[C@@H]2C)c(N)c1=O [Actinomycin D] (I: T[dV]P[Sar][NMeV] / II: T[dV]P[Sar][NMeV]; ester I:1-I:C, II:1-II:C; linker I:N-II:N via Actinocin(9to1)) |  |  | induction of apoptosis [4]: did not induce apoptosis
TNFα |  |  | induction of apoptosis [4]: did not induce apoptosis
C=C1[C@@H]2CC[C@H]3[C@]4(C)C[C@H](O[C@@H]5O[C@H](CO)[C@@H](OS(=O)(=O)O)[C@H](OS(=O)(=O)O)[C@H]5OC(=O)CC(C)C)C[C@@H](C(=O)O)[C@H]4CC[C@]3(C2)[C@H]1O [ATR, atractyloside] | activated the mtPTP | no effect | 
CC(C)(C)OO [t-H2O2, Tert-butyl hydroperoxide] | activated the mtPTP | activated the mtPTP | 
CN(C)C(=O)/N=N/C(=O)N(C)C [DIA, diamide] | activated the mtPTP | activated the mtPTP | 
